The values below come from US8846704B2, “Thiopyrimidine-based compounds and uses thereof” (YM Biosciences Austraila Pty Ltd, priority 2007, dated 2014).

One experiment has as its target T1, human JAK1 (Homo sapiens, UniProt P23458).
T1 construct: The kinase domain of human JAK1 was amplified; GST (N); made in house; host or cells: Sf9 insect cells (baculovirus)
Nature of the experiment: Alphascreen tyrosine kinase enzyme assay, JAK1 kinase domain. The experiment is classed as biochemical. The conditions noted are these: read-out: JAK1 IC50_nM. Here is the method:
For screening purposes, compounds (in 100% DMSO) were warmed at 37 degrees for at least 20 minutes before use. A […] stock was initially made in assay buffer, where the final concentration of DMSO was 0.3%. The stocks were then diluted in 384 well Optiplates (Packard) where the final concentration of the compound was […].
The kinase domain of human JAK1 was amplified from U937mRNA using the polymerase chain reaction with the following primers: […]
The JAK1 PCR products were cloned into the pDest20 destination vector (Gibco). The JAK1 plasmid was then transformed into competent DH10Bac cells (Gibco), and the recombinant baculovirus was prepared via Sf9 insect cell transfection.
Baculovirus preparations from each of the constructs were infected into either one or five liters of Sf9 cells (Invitrogen) grown in SF-900 medium (Invitrogen) to a cell density of approximately 1-2×10^6 cells/ml. Cells were infected with virus at a MOI of 0.8-3.0. Cells were harvested and lysed. Tyrosine kinase domains were purified by affinity chromatography on a glutathione-agarose column (Scientifix Pty. Ltd. catalog #: GSH-200).
Kinase assays were performed in 384 well Optiplates (Packard) using an Alphascreen Protein Tyrosine Kinase PY100 detection kit The compounds were pre-incubated with affinity purified PTK domain in the presence of phosphotyrosine assay buffer (10 mM HEPES, pH 7.5, 100 mM MgCl2, 25 mM NaCl, […] and 0.1% Tween 20) for 20 minutes. The compounds were then incubated with substrate in the presence of ATP. The substrate used was susbtrate-1 with the sequence biotin-EGPWLEEEEEAYGWMDF-NH2 [SEQ. ID. NO. 13] (final concentration […]). For HCK 80 μm ATP was used and incubated for 60 minutes. Alphascreen phosphotyrosine acceptor beads followed by streptavidin donor beads at a concentration of 1/100 in stop buffer were added to each well under subdued light and incubated for 2-3 hours., The Alphascreen plates were read on a Packard Fusion Alpha instrument.

A further experiment has as its system CTLL2. In words: Cellular screening, CTLL2 cells, Alamar Blue. Type of experiment: cell-based. The note with it: Mus musculus, CTLL-2, read-out: CTLL2 IC50_nM. Here is the method:
Cell suspensions were prepared by harvesting cells from culture (the cells used in this test were in late log phase growth with high viability.) Cells were diluted in the appropriate growth medium, as described above, to 1.1× final concentration (from 50,000 cell/mL to 200,000 cell/mL, depending on cell line).
Compounds to be tested were added (10 μL, 10× final concentration) to a flat bottomed 96-well plate. The cellular suspension (90 μL per well) was then added, and the plate incubated for 40 hr at 37° C., 5% CO2. Alamar Blue 10 μL per well was added and the plates returned to the incubator for a further 4-6 hours. The plates were then read at 544 nm.

For the next experiment, the target named is T2, human JAK3 (Homo sapiens, UniProt P52333).
T2 construct: The kinase domain of human JAK3 was amplified; GST (N); made in house; host or cells: Sf9 insect cells (baculovirus)
T2 sequence (P52333 822-1111 limits assumed): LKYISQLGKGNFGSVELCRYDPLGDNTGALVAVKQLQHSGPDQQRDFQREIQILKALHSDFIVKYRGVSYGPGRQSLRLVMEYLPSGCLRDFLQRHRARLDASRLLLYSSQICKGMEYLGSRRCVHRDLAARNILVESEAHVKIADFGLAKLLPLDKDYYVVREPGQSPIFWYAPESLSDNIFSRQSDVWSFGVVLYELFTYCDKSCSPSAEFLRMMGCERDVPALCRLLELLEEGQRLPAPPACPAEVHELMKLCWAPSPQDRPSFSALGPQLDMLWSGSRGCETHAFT
In words: Alphascreen tyrosine kinase enzyme assay, JAK3 kinase domain. Type of experiment: biochemical. The note with it: read-out: JAK3 IC50_nM. Put shortly:
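GST-affinity-purified human JAK3 kinase domain (baculovirus/Sf9) was pre-incubated 20 min with compound ([…]) in HEPES pH 7.5 buffer with MgCl2, vanadate and Tween 20. Biotinylated peptide substrate ([…]) and ATP were then added; phosphotyrosine was detected by AlphaScreen PY100 acceptor and streptavidin donor beads after 2–3 h.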

T1 sequence (P23458 875-1153 limits assumed): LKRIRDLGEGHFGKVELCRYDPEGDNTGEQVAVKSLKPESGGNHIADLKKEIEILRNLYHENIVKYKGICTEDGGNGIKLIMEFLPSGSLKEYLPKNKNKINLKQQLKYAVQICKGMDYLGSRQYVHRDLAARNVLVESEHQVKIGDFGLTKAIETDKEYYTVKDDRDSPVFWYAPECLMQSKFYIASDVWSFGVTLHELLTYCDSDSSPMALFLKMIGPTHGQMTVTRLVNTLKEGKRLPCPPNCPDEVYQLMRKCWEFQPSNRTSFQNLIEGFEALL

Regarding `Cc1cc(N)ccc1Sc1nc(Nc2ccc(N3CCOCC3)cc2)ncc1C` [Compound 162, 4-(4-ao-2-methylphenylthio)-5-methyl-N-(4-morpholinophenyl)pyrimidin-2-ae], the IC50 on human JAK1 is under 500 nM; in the experiment with CTLL2, under 5000 nM; at human JAK3, under 100 nM.
For `N#Cc1nnnn1Cc1ccc(Sc2ccnc(Nc3ccc(N4CCOCC4)cc3)n2)cc1` [Compound 155, 1-(4-(2-(4-morpholinophenylao)pyrimidin-4-ylthio)benzyl)-1H-tetrazole-5-carbonitrile] the same measures were over 1000 nM, under 5000 nM and under 100 nM.
For `OCc1ccc(Sc2ccnc(Nc3ccc(N4CCOCC4)cc3)n2)cc1` [Compound 67, (4-(2-(4-morpholinophenylao)pyrimidin-4-ylthio)phenyl)methanol] the same measures were under 1000 nM, under 20000 nM and under 500 nM.
For the molecule `C=CC(=O)Nc1ccc(Sc2nc(Nc3ccc(OCCCN(CC)CC)cc3)ncc2C)cc1` [Compound 291, N-(4-(2-(4-(3-(diethylao)propoxy)phenylao)-5-methylpyrimidin-4-ylthio)phenyl)acrylamide], the IC50 on human JAK1 is over 1000 nM; with CTLL2, under 1000 nM; at human JAK3, under 100 nM.
For `C=CC(=O)Nc1ccc(Sc2ccnc(Nc3ccc(N4CCOCC4)cc3)n2)cc1` [Compound 25, N-(4-(2-(4-morpholinophenylamino)pyrimidin-4-ylthio)phenyl)acrylamide] the same measures were over 1000 nM, under 1000 nM and under 100 nM.
Regarding `C=CC(=O)Nc1ccc(Sc2nc(Nc3ccc(N4CCC(CO)CC4)cc3)ncc2C)cc1` [Compound 286, N-(4-(2-(4-(4-(hydroxymethyl)piperidin-1-yl)phenylao)-5-methylpyrimidin-4-ylthio)phenyl)acrylamide], the IC50 at human JAK1 is over 1000 nM; in the experiment with CTLL2 it was under 1000 nM; on human JAK3, under 100 nM.
For `C=CC(=O)Nc1ccc(Sc2nc(Nc3ccc(N4CCN(C)CC4)cc3)ncc2C)cc1` [Compound 239, N-(4-(5-methyl-2-(4-(4-methylpiperazin-1-yl)phenylao)pyrimidin-4-ylthio)phenyl)acrylamide] the same measures were under 500 nM, under 1000 nM and under 100 nM.
For `C=CC(=O)Nc1ccc(Sc2nc(Nc3ccc(N4CCOCC4)cc3)ncc2F)cc1` [Compound 268, N-(4-(5-fluoro-2-(4-morpholinophenylao)pyrimidin-4-ylthio)phenyl)acrylamide] the same measures were over 1000 nM, under 1000 nM and under 100 nM.
For `C=CC(=O)Nc1ccc(Sc2nc(Nc3cccc(CO)c3)ncc2C)cc1` [Compound 280, N-(4-(2-(3-(hydroxymethyl)phenylao)-5-methylpyrimidin-4-ylthio)phenyl)acrylamide] the same measures were over 1000 nM, under 1000 nM and under 100 nM.
As to `C=CC(=O)Nc1ccc(Sc2nc(Nc3ccc(N4CCOCC4)cc3)ncc2Br)cc1` [Compound 306, N-(4-(5-bromo-2-(4-morpholinophenylao)pyrimidin-4-ylthio)phenyl)acrylamide], the results for the IC50 at human JAK1, in the experiment with CTLL2 and at human JAK3 were over 1000 nM, under 1000 nM and under 100 nM, respectively.
For `NCc1cccc(Sc2ccnc(Nc3ccc(N4CCOCC4)cc3)n2)c1` [Compound 75, 4-(3-(aomethyl)phenylthio)-N-(4-morpholinophenyl)pyrimidin-2-ae] the same measures were under 500 nM, under 20000 nM and under 500 nM.
For `C=CC(=O)NCc1cccc(Sc2ccnc(Nc3ccc(N4CCOCC4)cc3)n2)c1` [Compound 112, N-(3-(2-(4-morpholinophenylamino)pyrimidin-4-ylthio)benzyl)acrylamide] the same measures were over 1000 nM, under 20000 nM and under 100 nM.
For `Cc1cnc(Nc2ccc(N3CCOCC3)cc2)nc1Sc1ccc(NC(=O)CSCC(=O)O)cc1` [Compound 230, 2-(2-(4-(5-methyl-2-(4-morpholinophenylao)pyrimidin-4-ylthio)phenylao)-2-oxoethylthio)acetic acid] the same measures were under 1000 nM, over 20000 nM and under 100 nM.
As to `N#CCNCc1cccc(Sc2ccnc(Nc3ccc(N4CCOCC4)cc3)n2)c1` [Compound 68, 2-(3-(2-(4-morpholinophenylao)pyrimidin-4-ylthio)benzylao)acetonitrile], the IC50 was under 1000 nM on human JAK1, over 20000 nM with CTLL2 and under 500 nM on human JAK3.
For `C=CC(=O)Nc1ccc(Sc2nc(Nc3ccc(NS(C)(=O)=O)cc3)ncc2C)cc1` [Compound 285, N-(4-(5-methyl-2-(4-(methylsulfonamido)phenylao)pyrimidin-4-ylthio)phenyl)acrylamide] the same measures were over 1000 nM, under 1000 nM and under 100 nM.
As to `O=C(/C=C\Cl)Nc1ccc(Sc2ccnc(Nc3ccc(N4CCOCC4)cc3)n2)cc1` [Compound 346, (Z)-3-chloro-N-(4-(2-(4-morpholinophenylao)pyrimidin-4-ylthio)phenyl)acrylamide], the values for the IC50 at human JAK1, in the experiment with CTLL2 and at human JAK3 were over 1000 nM, under 20000 nM and under 100 nM, respectively.
For `C=CC(=O)Nc1ccc(Sc2nc(Nc3cccc(N4CCOCC4)c3)ncc2F)cc1` [Compound 267, N-(4-(5-fluoro-2-(3-morpholinophenylao)pyrimidin-4-ylthio)phenyl)acrylamide] the same measures were over 1000 nM, under 1000 nM and under 100 nM.
For `Nc1ccc(Sc2ccnc(Nc3ccc(N4CCOCC4)cc3)n2)cc1` [Compound 27, 4-(4-aophenylthio)-N-(4-morpholinophenyl)pyrimidin-2-ae] the same measures were under 1000 nM, under 5000 nM and under 1000 nM.
For `C=CC(=O)Nc1ccc(Sc2nc(Nc3cccc(NS(C)(=O)=O)c3)ncc2C)cc1` [Compound 288, N-(4-(5-methyl-2-(3-(methylsulfonamido)phenylao)pyrimidin-4-ylthio)phenyl)acrylamide] the same measures were over 1000 nM, under 1000 nM and under 100 nM.
As to `Cc1cnc(Nc2ccc(O)cc2)nc1Sc1ccc(NC(=O)CCl)cc1` [Compound 193, 2-chloro-N-(4-(2-(4-hydroxyphenylao)-5-methylpyrimidin-4-ylthio)phenyl)acetamide], the IC50 on human JAK1 was over 1000 nM; in the experiment with CTLL2, under 1000 nM; at human JAK3, under 100 nM.
For `C=CC(=O)N(C)c1ccc(Sc2nc(Nc3ccc(N4CCOCC4)cc3)ncc2C)cc1` [Compound 173, N-methyl-N-(4-(5-methyl-2-(4-morpholinophenylao)pyrimidin-4-ylthio)phenyl)acrylamide] the same measures were under 500 nM, under 1000 nM and under 100 nM.
For `C=CC(=O)Nc1ccc(Sc2nc(Nc3ccc(N4CCOCC4)c(OC)c3)ncc2C)cc1` [Compound 248, N-(4-(2-(3-methoxy-4-morpholinophenylao)-5-methylpyrimidin-4-ylthio)phenyl)acrylamide] the same measures were over 1000 nM, under 1000 nM and under 100 nM.
As for `CCOC(=O)/C=C/C(=O)Nc1ccc(Sc2nc(Nc3ccc(N4CCOCC4)cc3)ncc2C)cc1` [Compound 385, (E)-ethyl 4-(4-(5-methyl-2-(4-morpholinophenylao)pyrimidin-4-ylthio)phenylao)-4-oxobut-2-enoate], the IC50 on human JAK1 is over 1000 nM; with CTLL2, under 5000 nM; on human JAK3, under 100 nM.
